According to patent US20060063794A1, “Method of attenuating graft rejection” (Fujisawa Pharmaceutical Co., Ltd., priority 2004, published 2006):
“Also recorded” adds a separate entry of the source.

How the values were obtained:
[1] = test system: human kidney transplant recipients; test: Multi-center, randomized, double-blind trial of FK778/Tacrolimus/steroids: acute rejection and graft survival; type: in vivo
Description: Patients were randomised to a 3-month treatment regimen with high-level FK778/Tacrolimus/corticosteroid (arm 1), low-level FK778/Tacrolimus/corticosteroid (arm 2), or placebo/Tacrolimus/corticosteroid (arm 3). FK778 and placebo were administered in a double-blind manner. Patients in arm 1 received two doses of 600 mg/day and continued on 150 mg/day. Patients in arm 2 received one dose of 600 mg/day and continued on 75 mg/day. Subsequent doses were adjusted to maintain trough levels of FK778 in the range of 100-200 μg/mL (arm 1) and 10-100 μg/mL (arm 2). Trough levels of FK778 were centrally determined. Doses of FK778 were adjusted according to the recommendations of an independent panel.
Treatment of adults of both genders was studied in a multi-center, randomized, double-blind trial. Three groups were studied. Group H was treated with high dose FK778/tarcolimus/steroids; Group L was treated with low dose FK778/tarcolimus/steroids; and Group P was treated with placebo/Tacrolimus/steroids. Tacrolimus was given as an initial dose of 0.2 mg/kg per os divided into two equal doses, one pre-operatively and one post-operatively. Subsequent doses were adjusted to reach target Tacrolimus whole blood trough concentrations of 10-20 ng/mL on Days 0-30, and 5-15 ng/mL on Days 31-84. Methylprednisolone was perioperatively administered at 1000 mg i.v. or less and 125 mg on Day 1. A prednisolone equivalent was given orally at 20 mg from Day 2-14, at 15 mg on Day 15-28, at 10 mg from Day 29-42 and 5 mg from Day 43-84. Oral tablets of FK778/placebo were administered in a double-blind manner.
(§1) Patients in group H received loading doses of 600 mg/day on Day 1 and 2 and continued on 150 mg/day. This was the maximum permitted daily dose of FK778. Patients in group L received 600 mg/day only on Day 1 and continued on 75 mg/day. Dose adaptations were to be performed from day 7 onwards. Subsequent doses were adjusted to maintain plasma trough levels of FK778 in the target ranges of 100-200 μg/mL (H) and 10-100 μg/mL (L).
All visits and time points were calculated from the day of reperfusion (Day 0). […] Periods of dialysis dependence and hospitalization were recorded, as were details of medication. In case of a clinically apparent rejection, a renal graft biopsy was taken and classified by the local histopathologist according to the Banff 97 criteria (Racusen et al., Kidney Int. 55: 713-723 (1999)). Type I, II and III acute rejections (AR) were reported. AR was classified as corticosteroid-sensitive or corticosteroid-resistant. An independent histopathologist who was blinded to treatment and local biopsy readings performed the central biopsy review.
The primary efficacy endpoint was the incidence of AR proven by local biopsy over the first 12 weeks. […] For being defined as a patient whose target level was achieved, the average trough level of this patient had to be within the target range at week 2. On a continuous basis safety was assessed by patient and graft survival, adverse event monitoring, routine laboratory evaluations and vital signs. Treatment emergent adverse events were coded according to the MedDRA dictionary (version 5.0).
In this example, all tests were performed one-sided and pair-wise without alpha-adjustment for multiple testing using a 10% significance level. Statistical power was calculated for the analysis of the primary endpoint. A difference of 20% between groups in the incidence of biopsy-proven AR was considered a clinically meaningful difference. A reasonable expectation for the estimated rate of patients experiencing biopsy-proven AR in the Tacrolimus/steroid arm was 35%. Allowing for a dropout rate of 11%, it was estimated that with the outlined statistical methods the sample size of 45 evaluable patients per treatment arm was large enough to achieve a power of ≧80%. Thus, it was planned to enroll 135 patients using a 1:1:1 randomisation. The primary endpoint was analysed using chi-squared tests. […]

[2] = Same trial: FK778 plasma trough levels; type: in vivo, human
Description: as §1
The assay of FK778 trough concentrations were centrally performed in an independent laboratory and an independent unblinded pharmacokinetic (PK)-panel (Covance, UK) used the plasma FK778 levels to make dose adjustments when necessary. In addition, dummy adjustments in the placebo arm were performed. Concentrations were determined initially every other day, from day 14-42 weekly, and afterwards every other week.

rat cardiac allografts = details: rats, cited from earlier work
[3] = test system: chronic kidney allograft rejection; details: cited from earlier work
[4] = test system: B-cell proliferation; T cells; details: in vitro, FK778 in combination with Tacrolimus (FK506); cited from earlier work
renal allograft = details: rats, concomitant 14-day regimen FK778 (10/mg/kg/day) and Tacrolimus (1 mg/k/day); cited from earlier work
[5] = All patients, High level FK778 (group H)
[6] = All patients, Low level FK778 (group L)

C#CCC/C(O)=C(\C#N)C(=O)Nc1ccc(C(F)(F)F)cc1 [FK778, (2Z)-2-cyano-3-hydroxy-N-[4-(trifluromethyl)phenyl]-2-hepten-6-ynamide]
Corticosteroid-resistant AR (%) [1, 5]: (8.2) % | Corticosteroid-resistant AR, number of patients [1, 5]: 4 | Corticosteroid-sensitive AR (%) [1, 5]: (22.4) % | Corticosteroid-sensitive AR, number of patients [1, 5]: 11 | Overall AR proven by central biopsy, number of patients ([1]; All patients, High level FK778 (group H), N=49): 13 | Overall AR proven by local biopsy, number of patients ([1]; All patients, High level FK778 (group H), N=49, first 12 weeks): 14 | Corticosteroid-resistant AR (%) [1, 6]: (11.1) % | Corticosteroid-resistant AR, number of patients [1, 6]: 6 | Corticosteroid-sensitive AR (%) [1, 6]: (14.8) % | Corticosteroid-sensitive AR, number of patients [1, 6]: 8 | Overall AR proven by central biopsy, number of patients ([1]; All patients, Low level FK778 (group L), N=54): 14 | Overall AR proven by local biopsy, number of patients ([1]; All patients, Low level FK778 (group L), N=54, first 12 weeks): 14 | Overall AR proven by central biopsy, number of patients ([1]; Patients reaching target levels within second week, High level FK778 (subgroup H), N=26): 2 | Overall AR proven by central biopsy, number of patients ([1]; Patients reaching target levels within second week, Low level FK778 (subgroup L), N=48): 13 | Kaplan-Meier estimated rate of patients free from centrally determined biopsy proven acute rejection, higher compared with placebo ([1]; after 12 weeks, high and low level FK778): 12.1 % percentage points | Graft survival at month 4 ([1]; arm 1, high-level FK778/Tacrolimus/corticosteroid, n=49): 89.7% | Graft survival at month 4 ([1]; arm 2, low-level FK778/Tacrolimus/corticosteroid, n=54): 88.8% | Difference in incidence of AR by central biopsy review versus placebo ([1]; group H vs. P): 12.6% | Difference in incidence of AR proven by local biopsy versus placebo ([1]; group H vs. P): 6.2% | Graft survival estimate (Kaplan-Meier method) at Week 16 ([1]; group H, high level FK778): 89.7% | Difference in incidence of AR by central biopsy review versus placebo ([1]; group L vs. P): 13.2% | Difference in incidence of AR proven by local biopsy versus placebo ([1]; group L vs. P): 8.9% | Graft survival estimate (Kaplan-Meier method) at Week 16 ([1]; group L, low level FK778): 88.8% | Maximum FK778 plasma trough level ([2]; group H, Day 3): 142.4 µg/mL | Median FK778 plasma trough level ([2]; group H, Day 3): 84.34 µg/mL | Mean FK778 plasma trough level ([2]; group H, Day 3, after loading doses 600 mg/day on Day 1 and 2): 86.97 ± 26.23 µg/mL | Mean FK778 plasma trough level ([2]; group H, Day 7): 93.58 µg/mL | Mean FK778 plasma trough level ([2]; group H, Day 28): 175.66 µg/mL | Median FK778 plasma trough level ([2]; group L, Day 2): 41.35 µg/mL | Mean FK778 plasma trough level ([2]; group L, Day 2, after loading dose 600 mg/day on Day 1): 38.30 ± 21.14 µg/mL | Mean FK778 plasma trough level ([2]; group L, Day 11): 31.53 ± 21.26 µg/mL | Median FK778 plasma trough level ([2]; group L, Day 11): 28.35 µg/mL | Mean FK778 plasma trough level ([2]; group L, Day 42): 62.36 ± 27.60 µg/mL | Median FK778 plasma trough level ([2]; group L, Day 42): 59.36 µg/mL | Prolongation of graft survival (rat cardiac allografts; 20 mg/kg for ten days): about two | Median graft survival (rat cardiac allografts; MNA 715 (20/mg/kg) combined with Tacrolimus (2.4 mg/kg) for ten days): 19 days | Optimal dose ([3]; rat, given for ten days following transplantation): 10 mg/kg/day | Effect on chronic kidney allograft rejection ([3]; rats): prevented chronic kidney allograft rejection; also recorded: reduced functional and histologic chronic kidney allograft rejection | Effect in T cells [4]: antagonistic tendency | Effect on B-cell proliferation [4]: synergistic inhibition of B-cell proliferation | Effect on renal allograft survival (renal allograft): synergistically prolonged renal allograft survival
